Data set [1] relates to Hepatitis C virus. Description: microbe, parasite or virus in culture. Format: functional, organism-based, Hepacivirus hominis, subtype 1a, Huh-lunet. The settings on record: Hepatitis C virus, subtype 1a, Huh-lunet, 96 h.
Description: Antiviral activity against HCV-1a infected in human Huh-lunet cells after 4 days by luciferase based replicon assay
Data set [2] has as its system Hepatitis C virus. Put plainly: microbe, parasite or virus in culture. Format: functional, organism-based, Hepacivirus hominis, genotype 1b, Huh-luc/neo-ET. To be noted: Hepatitis C virus, genotype 1b, Huh-luc/neo-ET, 72 h.
Description: Antiviral activity against HCV-1b infected human Huh-luc/neo-ET replicon cells after 72 hrs by luciferase based replicon assay
Data set [3] in a line: in vitro. The settings on record: human, t1/2.
A short description of data set [4]: in vitro. To be noted: human.
Description: Metabolic stability in human liver microsomes assessed as compound remaining after 60 mins at 1 uM

Where only a bound is given, the exact number is not on record here.

The term EC50 denotes the midpoint of the concentration-response curve. As a reminder, the half-life is the time needed for the level to fall by half in the phase considered. High values mean slow loss, low ones fast loss. One may read the amount remaining as the share of the starting amount still present when the sample was taken.

Take `CS(=O)(=O)Nc1ccc2c(c1)S(=O)(=O)N=C(C1=C(O)[C@@H]3C4CCC(CC4)[C@@H]3N(CC(F)(F)F)C1=O)N2`: the EC50 in the data set on Hepatitis C virus [1] is 60 nM; in the data set with Hepatitis C virus [2], 4 nM. This molecule came in with a half-life at 1 µM in the data set “in vitro [3]” (microsomes) of 0.1 h.

Regarding `CS(=O)(=O)Nc1ccc2c(c1)S(=O)(=O)N=C(C1=C(O)[C@@H]3C4CCC(CC4)[C@@H]3N(Cc3ccc(F)c(F)c3)C1=O)N2`, the 50% effective concentration (EC50) in the data set on Hepatitis C virus [1] stood at 23 nM; in the data set with Hepatitis C virus [2] it was 2 nM. The molecule further yielded a half-life at 1 µM in the data set “in vitro [3]” (liver microsomes) above 1 h. The molecule also gave a share remaining at 1 h, 1 µM in “in vitro [4]” (liver microsomes) of 81%.

In the case of `CS(=O)(=O)Nc1ccc2c(c1)S(=O)(=O)N=C(C1=C(O)[C@@H]3C4CCC(CC4)[C@@H]3N(Cc3ccc(F)cc3Cl)C1=O)N2`, the values for the EC50 with Hepatitis C virus [1] and in the data set with Hepatitis C virus [2] were 25 nM and 1 nM, respectively. The molecule also had a half-life at 1 µM in “in vitro [3]” (liver microsomes) above 1 h. In “in vitro [4]” (liver microsomes), this molecule registered an amount remaining at 1 h, 1 µM of 100%.

Turning to `COc1cc(CN2C(=O)C(C3=NS(=O)(=O)c4cc(NS(C)(=O)=O)ccc4N3)=C(O)[C@@H]3C4CCC(CC4)[C@@H]32)ccc1F`, the results for the EC50 in the data set with Hepatitis C virus [1] and in the data set on Hepatitis C virus [2] were 21 nM and 2 nM, respectively. In “in vitro [3]” (liver microsomes), this molecule had a half-life at 1 µM above 1 h. In addition, the amount remaining at 1 h, 1 µM in the data set “in vitro [4]” (liver microsomes) turned out to be 67%.

`CS(=O)(=O)Nc1ccc2c(c1)S(=O)(=O)N=C(C1=C(O)[C@@H]3C4CCC(CC4)[C@@H]3N(Cc3cccs3)C1=O)N2`: the EC50 in the data set on Hepatitis C virus [1] is 120 nM; with Hepatitis C virus [2], 6 nM. This molecule registered a half-life at 1 µM in “in vitro [3]” (liver microsomes) of 0.85 h.

On to `CS(=O)(=O)Nc1ccc2c(c1)S(=O)(=O)N=C(C1=C(O)[C@@H]3[C@H]4CC[C@H](C4)[C@@H]3N(Cc3ccc(F)cc3F)C1=O)N2`, for which the EC50 was found to be 290 nM in the data set on Hepatitis C virus [1] and 10 nM in the data set on Hepatitis C virus [2]. Also, the half-life at 1 µM in “in vitro [3]” (microsomes) was above 1 h. The molecule further displayed an amount remaining at 1 h, 1 µM in “in vitro [4]” (microsomes) of 100%.

On to `CS(=O)(=O)Nc1ccc2c(c1)S(=O)(=O)N=C(C1=C(O)[C@@H]3[C@H]4CC[C@H](C4)[C@@H]3N(Cc3ccc(F)c(F)c3F)C1=O)N2`, for which the EC50 in the data set with Hepatitis C virus [1] came out at 260 nM; with Hepatitis C virus [2], 15 nM. This molecule returned a half-life at 1 µM in the data set “in vitro [3]” (liver microsomes) above 1 h. This molecule also showed an amount remaining at 1 h, 1 µM in the data set “in vitro [4]” (liver microsomes) of 100%.

For `CS(=O)(=O)Nc1ccc2c(c1)S(=O)(=O)N=C(C1=C(O)[C@@H]3C4CCC(CC4)[C@@H]3N(Cc3ccccc3)C1=O)N2`, the EC50 turned out to be 55 nM with Hepatitis C virus [1] and 1 nM with Hepatitis C virus [2]. The same molecule gave a half-life at 1 µM in the data set “in vitro [3]” (liver microsomes) above 1 h. The amount remaining at 1 h, 1 µM in the data set “in vitro [4]” (liver microsomes) was 82%.

In the case of `CS(=O)(=O)Nc1ccc2c(c1)S(=O)(=O)N=C(C1=C(O)[C@@H]3C4CCC(CC4)[C@@H]3N(Cc3ccc(Cl)cc3)C1=O)N2`, the EC50 was 250 nM in the data set on Hepatitis C virus [1] and 31 nM in the data set on Hepatitis C virus [2]. The molecule further gave a half-life at 1 µM in “in vitro [3]” (liver microsomes) above 1 h. Also, the fraction remaining at 1 h, 1 µM in the data set “in vitro [4]” (liver microsomes) is 100%.

On to `CS(=O)(=O)Nc1ccc2c(c1)S(=O)(=O)N=C(C1=C(O)[C@@H]3[C@H]4CC[C@H](C4)[C@@H]3N(Cc3ccc(F)cc3Cl)C1=O)N2`, for which the EC50 in the data set on Hepatitis C virus [1] was determined as 33 nM; in the data set on Hepatitis C virus [2], 5 nM. Also, the half-life at 1 µM in “in vitro [3]” (microsomes) was above 1 h. The share remaining at 1 h, 1 µM in “in vitro [4]” (microsomes) amounted to 98%.

Regarding `Cc1cc(CN2C(=O)C(C3=Nc4ccc(NS(C)(=O)=O)cc4S(=O)(=O)N3)=C(O)[C@@H]3[C@@H]4CC[C@@H](C4)[C@@H]32)ccc1F`, the EC50 in the data set with Hepatitis C virus [1] came to 87 nM; with Hepatitis C virus [2] it was 9 nM. This molecule showed a half-life at 1 µM in the data set “in vitro [3]” (liver microsomes) above 1 h. This molecule registered a fraction remaining at 1 h, 1 µM in the data set “in vitro [4]” (liver microsomes) of 65%.

Consider `CS(=O)(=O)Nc1ccc2c(c1)S(=O)(=O)N=C(C1=C(O)[C@@H]3[C@@H]4CC[C@@H](C4)[C@@H]3N(Cc3cccs3)C1=O)N2`, for which the EC50 in the data set with Hepatitis C virus [1] came to 820 nM; with Hepatitis C virus [2] it was 27 nM. This molecule displayed a half-life at 1 µM in the data set “in vitro [3]” (microsomes) above 1 h. Also, the amount remaining at 1 h, 1 µM in the data set “in vitro [4]” (microsomes) was 63%.

Consider `CS(=O)(=O)Nc1ccc2c(c1)S(=O)(=O)N=C(C1=C(O)[C@@H]3[C@@H]4CC[C@@H](C4)[C@@H]3N(Cc3ccc(F)c(Cl)c3)C1=O)N2`, for which the results for the EC50 in the data set on Hepatitis C virus [1] and in the data set on Hepatitis C virus [2] were 200 nM and 4 nM, respectively. The same molecule showed a half-life at 1 µM in “in vitro [3]” (liver microsomes) above 1 h. In the data set “in vitro [4]” (liver microsomes), the amount remaining at 1 h, 1 µM was 100%.

Turning to `COc1cc(CN2C(=O)C(C3=NS(=O)(=O)c4cc(NS(C)(=O)=O)ccc4N3)=C(O)[C@@H]3[C@H]4CC[C@H](C4)[C@@H]32)ccc1F`, the EC50 with Hepatitis C virus [1] was found to be 46 nM; with Hepatitis C virus [2], 10 nM. Also, the half-life at 1 µM in the data set “in vitro [3]” (microsomes) was above 1 h. The molecule further came in with a share remaining at 1 h, 1 µM in the data set “in vitro [4]” (microsomes) of 66%.

Consider `CS(=O)(=O)Nc1ccc2c(c1)S(=O)(=O)N=C(C1=C(O)[C@@H]3C4CCC(CC4)[C@@H]3N(CC3CCCCC3)C1=O)N2`, for which the EC50 was 55 nM in the data set with Hepatitis C virus [1] and 11 nM in the data set with Hepatitis C virus [2]. In “in vitro [3]” (microsomes), this molecule returned a half-life at 1 µM of 0.833 h.

`CS(=O)(=O)Nc1ccc2c(c1)S(=O)(=O)NC(C1=C(O)[C@@H]3[C@@H]4CC[C@@H](C4)[C@@H]3N(Cc3cccc(F)c3)C1=O)=N2`: the EC50 came out at 290 nM in the data set on Hepatitis C virus [1] and 22 nM in the data set with Hepatitis C virus [2]. In the data set “in vitro [3]” (microsomes), this molecule came in with a half-life at 1 µM above 1 h. The fraction remaining at 1 h, 1 µM in the data set “in vitro [4]” (microsomes) was determined as 96%.

For the molecule `Cc1cc(CN2C(=O)C(C3=NS(=O)(=O)c4cc(NS(C)(=O)=O)ccc4N3)=C(O)[C@@H]3C4CCC(CC4)[C@@H]32)ccc1F`, the EC50 in the data set on Hepatitis C virus [1] amounted to 16 nM; in the data set with Hepatitis C virus [2], 2 nM. Further, the half-life at 1 µM in the data set “in vitro [3]” (liver microsomes) is above 1 h. This molecule also showed a share remaining at 1 h, 1 µM in “in vitro [4]” (liver microsomes) of 81%.

`CS(=O)(=O)Nc1ccc2c(c1)S(=O)(=O)N=C(C1=C(O)[C@@H]3C4CCC(CC4)[C@@H]3N(Cc3ccc(F)cc3F)C1=O)N2`: the values for the EC50 in the data set on Hepatitis C virus [1] and in the data set on Hepatitis C virus [2] were 280 nM and 2 nM, respectively. In “in vitro [3]” (liver microsomes), this molecule had a half-life at 1 µM above 1 h. In the data set “in vitro [4]” (liver microsomes), this molecule came in with an amount remaining at 1 h, 1 µM of 100%.

`CS(=O)(=O)Nc1ccc2c(c1)S(=O)(=O)N=C(C1=C(O)[C@@H]3[C@H]4CC[C@H](C4)[C@@H]3N(Cc3ccc(Cl)cc3)C1=O)N2`: the EC50 in the data set with Hepatitis C virus [1] came out at 760 nM; in the data set with Hepatitis C virus [2], 203 nM. The molecule also displayed a half-life at 1 µM in the data set “in vitro [3]” (microsomes) above 1 h. The same molecule came in with a fraction remaining at 1 h, 1 µM in “in vitro [4]” (microsomes) of 84%.

Turning to `CS(=O)(=O)Nc1ccc2c(c1)S(=O)(=O)N=C(C1=C(O)[C@@H]3C4CCC(CC4)[C@@H]3N(Cc3ccc(F)c(Cl)c3)C1=O)N2`, the results for the EC50 in the data set on Hepatitis C virus [1] and with Hepatitis C virus [2] were 19 nM and 2 nM, respectively. In addition, the half-life at 1 µM in the data set “in vitro [3]” (liver microsomes) is above 1 h. Also, the fraction remaining at 1 h, 1 µM in the data set “in vitro [4]” (liver microsomes) turned out to be 100%.

With `CC(C)CCN1C(=O)C(C2=NS(=O)(=O)c3cc(NS(C)(=O)=O)ccc3N2)=C(O)[C@@H]2[C@H]3CC[C@H](C3)[C@@H]21`, the EC50 is 72 nM in the data set on Hepatitis C virus [1] and 12 nM in the data set on Hepatitis C virus [2]. In the data set “in vitro [3]” (liver microsomes), the half-life at 1 µM was found to be 0.617 h.

Turning to `CS(=O)(=O)Nc1ccc2c(c1)S(=O)(=O)N=C(C1=C(O)[C@@H]3[C@H]4CC[C@H](C4)[C@@H]3N(Cc3ccccc3Cl)C1=O)N2`, the EC50 in the data set with Hepatitis C virus [2] amounted to 90 nM. Besides, the half-life at 1 µM in “in vitro [3]” (liver microsomes) was above 1 h. In the data set “in vitro [4]” (liver microsomes), this molecule had a share remaining at 1 h, 1 µM of 100%.

On to `CC(C)(C)CCN1C(=O)C(C2=NS(=O)(=O)c3cc(NS(C)(=O)=O)ccc3N2)=C(O)[C@@H]2[C@H]3CC[C@H](C3)[C@@H]21`, for which the EC50 in the data set on Hepatitis C virus [1] is 180 nM; in the data set on Hepatitis C virus [2], 20 nM. The molecule also had a half-life at 1 µM in the data set “in vitro [3]” (microsomes) of 0.0667 h.

On to `COc1cc(CN2C(=O)C(C3=NS(=O)(=O)c4cc(NS(C)(=O)=O)ccc4N3)=C(O)[C@@H]3[C@@H]4CC[C@@H](C4)[C@@H]32)ccc1F`, for which the response in the data set with Hepatitis C virus [2] was half-maximal at 59 nM (EC50). In the data set “in vitro [3]” (microsomes), this molecule showed a half-life at 1 µM above 1 h. In “in vitro [4]” (microsomes), this molecule gave an amount remaining at 1 h, 1 µM of 64%.

The values are drawn from ChEMBL document CHEMBL1154345, “Discovery of tricyclic 5,6-dihydro-1H-pyridin-2-ones as novel, potent, and orally bioavailable inhibitors of HCV NS5B polymerase” (Bioorg Med Chem Lett, 2009).
